# Test results published in US20180250280A1 (BAYER PHARMA AKTIENGESELLSCHAFT, priority 2015, published 2018).
# Assays:
# human plasma kallikrein = target: T1, human plasma kallikrein (Homo sapiens, UniProt P03952); assay: Determination of the plasma kallikrein activity (fluorogenic peptide substrate, AMC cleavage); format: biochemical; conditions: plasma kallikrein from Kordia 0.6 nM; substrate H-Pro-Phe-Arg-AMC 10 μM; 30 min at 22° C.; in some cases averages from multiple determinations
# T1 construct: purchased Kordia
# T1 sequence (P03952 391-638 limits assumed): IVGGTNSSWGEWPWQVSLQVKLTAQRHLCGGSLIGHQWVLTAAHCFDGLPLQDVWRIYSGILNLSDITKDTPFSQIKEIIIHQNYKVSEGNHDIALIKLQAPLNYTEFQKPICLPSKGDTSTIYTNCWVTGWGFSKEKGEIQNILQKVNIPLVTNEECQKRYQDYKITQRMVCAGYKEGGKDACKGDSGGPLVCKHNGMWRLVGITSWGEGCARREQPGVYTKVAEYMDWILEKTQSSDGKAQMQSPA
# T1 sequence (P03952 20-390 partner limits assumed): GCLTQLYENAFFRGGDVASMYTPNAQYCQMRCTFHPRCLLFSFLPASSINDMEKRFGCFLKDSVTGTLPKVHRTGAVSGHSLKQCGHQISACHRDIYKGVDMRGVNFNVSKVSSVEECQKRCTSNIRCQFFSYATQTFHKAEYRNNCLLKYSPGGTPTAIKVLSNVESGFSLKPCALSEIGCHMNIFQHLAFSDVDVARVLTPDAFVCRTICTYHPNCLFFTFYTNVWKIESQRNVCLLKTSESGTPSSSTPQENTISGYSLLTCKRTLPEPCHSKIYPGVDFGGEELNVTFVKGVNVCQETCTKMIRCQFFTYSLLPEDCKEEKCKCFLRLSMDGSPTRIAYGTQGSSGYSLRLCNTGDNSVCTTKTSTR
# Protocol: (§1) To determine the plasma kallikrein inhibition of the substances according to the invention, a biochemical test system is used which utilizes the reaction of a peptidic plasma kallikrein substrate to determine the enzymatic activity of human plasma kallikrein. Here, plasma kallikrein cleaves from the peptic plasma kallikrein substrate the C-terminal aminomethylcoumarin (AMC), the fluorescence of which is measured. The determinations are conducted in microtitre plates.
# Test substances are dissolved in dimethyl sulfoxide and serially diluted in dimethyl sulfoxide (3000 μM to 0.0078 μM; resulting final concentrations in the test: 50 μM to 0.00013 μM). 1 μl of the diluted substance solutions is placed into each of the wells of white microtitre plates from Greiner (384 wells). 20 μl of assay buffer (50 mM Tris/HCl pH 7.4; 100 mM sodium chloride solution; 5 mM calcium chloride solution; 0.1% of bovine serum albumin) and 20 μl of plasma kallikrein from Kordia (0.6 nM in assay buffer) are then added successively. After 15 min of incubation, the enzyme reaction is started by addition of 20 μl of the substrate H-Pro-Phe-Arg-AMC dissolved in assay buffer (10 μM in assay buffer) from Bachem, the mixture is incubated at room temperature (22° C.) for 30 min and fluorescence is then measured (excitation: 360 nm, emission: 460 nm). The measured emissions of the test batches with test substance are compared to those of control batches without test substance (only dimethyl sulfoxide instead of test substance in dimethyl sulfoxide), and IC50 values are calculated from the concentration/activity relationships. Activity data from this test are given in Table B below (in some cases as averages from multiple individual determinations): […]
# human factor XIa = target: T2, human factor XIa (Homo sapiens, UniProt P03951); assay: Measurement of FXIa inhibition (fluorogenic peptide substrate, AMC cleavage); format: biochemical; conditions: factor XIa from Kordia 0.45 nM; substrate Boc-Glu(OBzl)-Ala-Arg-AMC 10 μM; 30 min at 22° C.; in some cases averages from multiple determinations
# T2 construct: purchased Kordia
# T2 sequence (P03951 388-625 limits assumed): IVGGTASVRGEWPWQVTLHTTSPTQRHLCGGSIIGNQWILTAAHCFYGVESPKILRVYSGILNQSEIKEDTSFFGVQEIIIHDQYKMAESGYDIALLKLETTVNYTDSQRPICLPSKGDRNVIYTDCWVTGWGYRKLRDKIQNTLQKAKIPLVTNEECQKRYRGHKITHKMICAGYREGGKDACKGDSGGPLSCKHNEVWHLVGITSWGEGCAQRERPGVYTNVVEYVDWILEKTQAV
# T2 sequence (P03951 19-387 partner limits assumed): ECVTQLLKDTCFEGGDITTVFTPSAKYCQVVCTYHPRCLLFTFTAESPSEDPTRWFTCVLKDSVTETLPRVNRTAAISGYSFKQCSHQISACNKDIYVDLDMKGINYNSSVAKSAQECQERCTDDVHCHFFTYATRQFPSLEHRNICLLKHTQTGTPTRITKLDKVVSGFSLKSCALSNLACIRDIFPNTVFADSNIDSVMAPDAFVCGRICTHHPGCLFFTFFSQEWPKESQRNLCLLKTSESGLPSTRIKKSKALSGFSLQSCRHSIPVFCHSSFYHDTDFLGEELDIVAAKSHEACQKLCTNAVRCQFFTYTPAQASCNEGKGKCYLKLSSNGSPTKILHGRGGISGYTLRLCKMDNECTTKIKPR
# Protocol: as §1, with “The factor XIa” for “To determine the plasma kallikrein”, “invention is determined using” for “invention,”, “system” for “system is used”, “factor XIa” for “plasma kallikrein”, “factor XIa.” for “plasma kallikrein.”
# Test substances are dissolved in dimethyl sulfoxide and serially diluted in dimethyl sulfoxide (3000 μM to 0.0078 μM; resulting final concentrations in the test: 50 μM to 0.00013 μM). 1 μl of the diluted substance solutions is placed into each of the wells of white microtitre plates from Greiner (384 wells). 20 μl of assay buffer (50 mM of Tris/HCl pH 7.4; 100 mM of sodium chloride; 5 mM of calcium chloride; 0.1% of bovine serum albumin) and 20 μl of factor XIa from Kordia (0.45 nM in assay buffer) are then added successively. After 15 min of incubation, the enzyme reaction is started by addition of 20 μl of the factor XIa substrate Boc-Glu(OBzl)-Ala-Arg-AMC dissolved in assay buffer (10 μM in assay buffer) from Bachem, the mixture is incubated at room temperature (22° C.) for 30 min and fluorescence is then measured (excitation: 360 nm, emission: 460 nm). The measured emissions of the test batches with test substance are compared to those of control batches without test substance (only dimethyl sulfoxide instead of test substance in dimethyl sulfoxide), and IC50 values are calculated from the concentration/activity relationships. Activity data from this test are given in Table A below (in some cases as averages from multiple individual determinations): […]
SMILES,IC50 (human plasma kallikrein) [µM],IC50 (human factor XIa) [µM]
"COCCC(C(=O)Nc1ccc(C(=O)O)cc1)n1cc(OC)c(-c2cc(Cl)ccc2OCC(F)(F)F)cc1=O (racemic) [Example 1, 4-[(2-{4-[5-Chloro-2-(2,2,2-trifluoroethoxy)phenyl]-5-methoxy-2-oxopyridin-1(2H)-yl}-4-methoxybutanoyl)amino]benzoic acid]",0.055,0.0012
"COCCC(C(=O)Nc1ccc(C(N)=O)c(F)c1)n1cc(OC)c(-c2cc(Cl)ccc2OCC(F)(F)F)cc1=O (racemic) [Example 3, 4-[(2-{4-[5-Chloro-2-(2,2,2-trifluoroethoxy)phenyl]-5-methoxy-2-oxopyridin-1(2H)-yl}-4-methoxybutanoyl)amino]-2-fluorobenzamide]",0.1,0.014
"COc1cn(C(CCOC(C)(C)C)C(=O)Nc2ccc(C(=O)O)cc2)c(=O)cc1-c1cc(Cl)ccc1OCC(F)(F)F (racemic) [Example 7, 4-[(4-tert-Butoxy-2-{4-[5-chloro-2-(2,2,2-trifluoroethoxy)phenyl]-5-methoxy-2-oxopyridin-1(2H)-yl}butanoyl)amino]benzoic acid]",0.034,0.00071
"COc1cn(C(CCOC(C)(C)C)C(=O)Nc2ccc3nn(C)cc3c2)c(=O)cc1-c1cc(Cl)ccc1OCC(F)(F)F (racemic) [Example 9, 4-tert-Butoxy-2-{4-[5-chloro-2-(2,2,2-trifluoroethoxy)phenyl]-5-methoxy-2-oxopyridin-1(2H)-yl}-N-(2-methyl-2H-indazol-5-yl)butanamide]",0.057,0.014
"COc1cn(C(CCOC(C)(C)C)C(=O)Nc2ccc(C(N)=O)c(F)c2)c(=O)cc1-c1cc(Cl)ccc1OCC(F)(F)F (racemic) [Example 10, 4-[(4-tert-Butoxy-2-{4-[5-chloro-2-(2,2,2-trifluoroethoxy)phenyl]-5-methoxy-2-oxopyridin-1(2H)-yl}butanoyl)amino]-2-fluorobenzamide]",0.077,0.015
"COc1cn(C(CCOC(C)(C)C)C(=O)Nc2ccc(C(N)=O)nc2)c(=O)cc1-c1cc(Cl)ccc1OCC(F)(F)F (racemic) [Example 11, 5-[(4-tert-Butoxy-2-{4-[5-chloro-2-(2,2,2-trifluoroethoxy)phenyl]-5-methoxy-2-oxopyridin-1(2H)-yl}butanoyl)amino]pyridine-2-carboxamide]",0.087,0.018
"CNC(=O)c1ccc(NC(=O)C(CCOC(C)(C)C)n2cc(OC)c(-c3cc(Cl)ccc3OCC(F)(F)F)cc2=O)cn1 (racemic) [Example 12, 5-[(4-tert-Butoxy-2-{4-[5-chloro-2-(2,2,2-trifluoroethoxy)phenyl]-5-methoxy-2-oxopyridin-1(2H)-yl}butanoyl)amino]-N-methylpyridine-2-carboxamide]",0.06,0.012
"COc1cn(C(CCOC(C)(C)C)C(=O)Nc2ccc(C(=O)O)cc2)c(=O)cc1-c1cc(Cl)ccc1OCC(F)F (racemic) [Example 25, 4-[(4-tert-Butoxy-2-{4-[5-chloro-2-(2,2-difluoroethoxy)phenyl]-5-methoxy-2-oxopyridin-1(2H)-yl}butanoyl)amino]benzoic acid]",0.12,0.0024
"COc1cn(C(CCOC(C)(C)C)C(=O)Nc2ccc(C(N)=O)c(F)c2)c(=O)cc1-c1cc(Cl)ccc1OCC(F)F (racemic) [Example 26, 4-[(4-tert-Butoxy-2-{4-[5-chloro-2-(2,2-difluoroethoxy)phenyl]-5-methoxy-2-oxopyridin-1(2H)-yl}butanoyl)amino]-2-fluorobenzamide]",0.15,0.025
"COc1cn(C(CCOC(C)(C)C)C(=O)Nc2ccc(C(N)=O)nc2)c(=O)cc1-c1cc(Cl)ccc1OCC(F)F (racemic) [Example 27, 5-[(4-tert-Butoxy-2-{4-[5-chloro-2-(2,2-difluoroethoxy)phenyl]-5-methoxy-2-oxopyridin-1(2H)-yl}butanoyl)amino]pyridine-2-carboxamide]",0.095,0.018
"COc1cn(C(CCOC(C)(C)C)C(=O)Nc2ccc3nn(C)cc3c2)c(=O)cc1-c1cc(Cl)ccc1OCC(F)F (racemic) [Example 28, 4-tert-Butoxy-2-{4-[5-chloro-2-(2,2-difluoroethoxy)phenyl]-5-methoxy-2-oxopyridin-1(2H)-yl}-N-(2-methyl-2H-indazol-5-yl)butanamide]",0.12,0.028

# Other lines, results leading:
IC50 (human plasma kallikrein) [µM],IC50 (human factor XIa) [µM],SMILES
0.049,0.0065,"CNC(=O)c1ccc(NC(=O)C(CCOC)n2cc(OC)c(-c3cc(Cl)ccc3OCC(F)(F)F)cc2=O)cn1 (racemic) [Example 4, 5-[(2-{4-[5-Chloro-2-(2,2,2-trifluoroethoxy)phenyl]-5-methoxy-2-oxopyridin-1(2H)-yl}-4-methoxybutanoyl)amino]-N-methylpyridine-2-carboxamide]"
0.033,0.0041,"COCCC(C(=O)Nc1ccc2nn(C)cc2c1)n1cc(OC)c(-c2cc(Cl)ccc2OCC(F)(F)F)cc1=O (racemic) [Example 5, 2-{4-[5-Chloro-2-(2,2,2-trifluoroethoxy)phenyl]-5-methoxy-2-oxopyridin-1(2H)-yl}-4-methoxy-N-(2-methyl-2H-indazol-5-yl)butanamide]"
0.13,0.019,"CNC(=O)c1ccc(NC(=O)C(CCOC)n2cc(OC)c(-c3cc(Cl)ccc3OCC(F)(F)F)cc2=O)cc1F (racemic) [Example 6, 4-[(2-{4-[5-Chloro-2-(2,2,2-trifluoroethoxy)phenyl]-5-methoxy-2-oxopyridin-1(2H)-yl}-4-methoxybutanoyl)amino]-2-fluoro-N-methylbenzamide]"
0.014,0.0013,"COc1cn(C(Cc2ccn(C)n2)C(=O)Nc2ccc(C(=O)O)cc2)c(=O)cc1-c1cc(Cl)ccc1OCC(F)(F)F (racemic) [Example 13, 4-{[2-{4-[5-Chloro-2-(2,2,2-trifluoroethoxy)phenyl]-5-methoxy-2-oxopyridin-1(2H)-yl}-3-(1-methyl-1H-pyrazol-3-yl)propanoyl]amino}benzoic acid]"
0.045,0.0093,"COc1cn(C(Cc2ccn(C)n2)C(=O)Nc2ccc3nn(C)cc3c2)c(=O)cc1-c1cc(Cl)ccc1OCC(F)(F)F (racemic) [Example 14, 2-{4-[5-Chloro-2-(2,2,2-trifluoroethoxy)phenyl]-5-methoxy-2-oxopyridin-1(2H)-yl}-N-(2-methyl-2H-indazol-5-yl)-3-(1-methyl-1H-pyrazol-3-yl)propanamide]"
0.035,0.0064,"CNC(=O)c1ccc(NC(=O)C(Cc2ccn(C)n2)n2cc(OC)c(-c3cc(Cl)ccc3OCC(F)(F)F)cc2=O)cn1 (racemic) [Example 15, 5-{[2-{4-[5-Chloro-2-(2,2,2-trifluoroethoxy)phenyl]-5-methoxy-2-oxopyridin-1(2H)-yl}-3-(1-methyl-1H-pyrazol-3-yl)propanoyl]amino}-N-methylpyridine-2-carboxamide]"
0.067,0.01,"COc1cn(C(Cc2ccn(C)n2)C(=O)Nc2ccc(C(N)=O)c(F)c2)c(=O)cc1-c1cc(Cl)ccc1OCC(F)(F)F (racemic) [Example 16, 4-{[2-{4-[5-Chloro-2-(2,2,2-trifluoroethoxy)phenyl]-5-methoxy-2-oxopyridin-1 (2H)-yl}-3-(1-methyl-1H-pyrazol-3-yl)propanoyl]amino}-2-fluorobenzamide]"
0.13,0.036,"COc1cn(C(CC2=NOCCC2)C(=O)Nc2ccc3nn(C)cc3c2)c(=O)cc1-c1cc(Cl)ccc1OCC(F)(F)F (racemic) [Example 24, 2-{4-[5-Chloro-2-(2,2,2-trifluoroethoxy)phenyl]-5-methoxy-2-oxopyridin-1(2H)-yl}-3-(5,6-dihydro-4H-1,2-oxazin-3-yl)-N-(2-methyl-2H-indazol-5-yl)propanamide]"
